Reference: patent publication US20170014354A1, “ZEAXANTHIN FOR TUMOR TREATMENT” (The New York Eye and Ear Infirmary, priority 2012, published 2017)

What was measured:
[1] = system: NCI-H1755; experiment: MTT cell viability, NCI-H1755 lung cancer; format: cell-based; conditions: for Cell viability: 48 h, MTT, vs control
Procedure: (§1) Each malignant tumor cell line was cultured in Dulbecco's modified Eagle's medium (DMEM, GIBCO, Carlsbad, Calif.) supplemented with 10% fetal bovine serum (FBS, GIBCO). Cells were incubated in a humidified 5% CO2 atmosphere at 37° C. After reaching confluence, cells were detached by trypsin-EDTA solution (GIBCO), diluted 1:4-1:6, plated for subculture and were passaged routinely at a dilution of 1:4-1:6 every 4-6 days.
(§2) All cell lines were tested in triplicates.

[2] = system: C918; experiment: MTT cell viability, C918 uveal melanoma; format: cell-based; conditions: vs control; for Cell viability: 48 h, MTT; for reduction of cell viabilities: FIG. 1C
Procedure: as §1, §2

[3] = system: HCT-15; experiment: MTT cell viability, HCT-15 colon cancer; format: cell-based; conditions: 48 h, vs control
Procedure: as §1, §2

[4] = system: PC-3; experiment: MTT cell viability, PC-3 prostate cancer; format: cell-based; conditions: 48 h, vs control
Procedure: as §1, §2

[5] = system: HeLa; experiment: MTT cell viability, HeLa cervix cancer; format: cell-based; conditions: 48 h, vs control
Procedure: as §1, §2

[6] = system: MDA; experiment: MTT cell viability, MDA breast cancer; format: cell-based; conditions: for Cell viability: 48 h, MTT, vs control
Procedure: as §1, §2

[7] = system: OS143; experiment: MTT cell viability, OS143 osteosarcoma; format: cell-based; conditions: 48 h, vs control
Procedure: as §1, §2

[8] = system: T-47D; experiment: MTT cell viability, T-47D breast cancer; format: cell-based; conditions: 48 h, vs control
Procedure: as §1, §2

[9] = system: Hep G2; experiment: MTT cell viability, Hep G2 hepatocellular carcinoma; format: cell-based; conditions: 48 h, vs control
Procedure: as §1, §2

[10] = system: uveal melanoma cells (SP6.5); experiment: Annexin V-FITC staining apoptosis analysis; format: cell-based
Procedure: FIG. 3 illustrates the fluorescence photomicrograph of pro-apoptotic effects of zeaxanthin on uveal melanoma cells after annexin V-FTIC staining. Melanoma cells (SP6.5 cell line) were treated by zeaxanthin at a concentration of 100 μM for 24 hr, and the extent of apoptosis was determined by annexin V-FTIC staining. Cells were observed under fluorescence microscope using 492 nm and 530 nm filters for recognizing and detecting FITC.
In these tests, we measured the extent of apoptosis of cells treated with zeaxanthin by annexin V-FITC staining analysis. Specifically, uveal melanoma cells (SP6.5) were plated into 8-well plates at a density of 6×10^4 cells/well. After culturing for 24 hours, cells were treated with zeaxanthin at final concentration of 10, 30, and 100 μM for another 24 hours in a CO2 incubator at 37C. Then the culture medium was aspirated and the cells were washed with the binding buffer in preparation for annexin V-FITC staining analysis. FITC-annexin V was added into each well and the cells were stained for 15 min in the dark, followed by washing with the binding buffer. The cells were then observed under fluorescence microscope using 492 nm and 530 nm filters that facilitate FITC fluorescence detection to measure the extent of apoptosis based on the principle that cell membranes of apoptotic cells were stained bright green in color.

[11] = system: A375; experiment: MTT cell viability, A375 cutaneous melanoma; format: cell-based; conditions: 48 h, vs control
Procedure: as §1, §2

[12] = system: SCC1; experiment: MTT cell viability, SCC1 cutaneous squamous carcinoma; format: cell-based; conditions: 48 h, vs control
Procedure: as §1, §2

[13] = system: M17; experiment: MTT cell viability, M17 uveal melanoma; format: cell-based, human; conditions: 48 h, vs control
Procedure: as §1, §2

Question: How did the Cell viability ([1]; NCI-H1755, 10 μM zeaxanthin) turn out when `CC1=C(/C=C/C(C)=C/C=C/C(C)=C/C=C/C=C(C)/C=C/C=C(C)/C=C/C2=C(C)C[C@@H](O)CC2(C)C)C(C)(C)C[C@H](O)C1` [zeaxanthin] was run?
Answer: 86 ± 6.7%

Question: And the Cell viability ([1]; NCI-H1755, 30 μM zeaxanthin)?
Answer: 81 ± 4.5%

Question: And the Cell viability ([1]; NCI-H1755, 100 μM zeaxanthin)?
Answer: 81 ± 90%

Question: What about the “final concentration at which cell viability decreased significantly” value ([1]; NCI-H1755, vs cells without zeaxanthin) of the same molecule?
Answer: ≥ 30 µM

Question: And the Cell viability ([2]; C918, 10 μM zeaxanthin)?
Answer: 79 ± 4.1%

Question: What about the “reduction of cell viabilities” value ([2]; C918, 10 μM zeaxanthin) of the same molecule?
Answer: about 21%

Question: What about the Cell viability ([2]; C918, 30 μM zeaxanthin) of the same molecule?
Answer: 48 ± 2.6%

Question: What about the “reduction of cell viabilities” value ([2]; C918, 30 μM zeaxanthin) of the same molecule?
Answer: ~52%

Question: And the Cell viability ([2]; C918, 100 μM zeaxanthin)?
Answer: 12 ± 1.0%

Question: What about the “reduction of cell viabilities” value ([2]; C918, 100 μM zeaxanthin) of the same molecule?
Answer: ~88%

Question: What about the Cell viability ([3]; HCT-15, 10 μM zeaxanthin) of the same molecule?
Answer: 62 ± 3.4%

Question: What about the Cell viability ([3]; HCT-15, 30 μM zeaxanthin) of the same molecule?
Answer: 46 ± 2.4%

Question: And the Cell viability ([3]; HCT-15, 100 μM zeaxanthin)?
Answer: 12 ± 1.3%

Question: And the Cell viability ([4]; PC-3, 10 μM zeaxanthin)?
Answer: 74 ± 4.4%

Question: And the Cell viability ([4]; PC-3, 30 μM zeaxanthin)?
Answer: 62 ± 3.2%

Question: What about the Cell viability ([4]; PC-3, 100 μM zeaxanthin) of the same molecule?
Answer: 39 ± 2.6%

Question: And the Cell viability ([5]; 10 μM zeaxanthin)?
Answer: 66 ± 3.3%

Question: And the Cell viability ([5]; 30 μM zeaxanthin)?
Answer: 46 ± 1.6%

Question: And the Cell viability ([5]; 100 μM zeaxanthin)?
Answer: 7.9 ± 2.0%

Question: And the Cell viability ([6]; 10 μM zeaxanthin)?
Answer: 97 ± 6.36%

Question: What about the Cell viability ([6]; 30 μM zeaxanthin) of the same molecule?
Answer: 95 ± 5.1%

Question: And the Cell viability ([6]; 100 μM zeaxanthin)?
Answer: 92 ± 9.2%

Question: What about the “decrease of cell viability after zeaxanthin treatment” value ([6]; final concentration as high as 100 μM) of the same molecule?
Answer: did not see statistically significant decrease of cell viability

Question: And the Cell viability ([7]; OS143, 10 μM zeaxanthin)?
Answer: 82 ± 5.0%

Question: And the Cell viability ([7]; OS143, 30 μM zeaxanthin)?
Answer: 78 ± 3.4%

Question: What about the Cell viability ([7]; OS143, 100 μM zeaxanthin) of the same molecule?
Answer: 42 ± 1.3%

Question: What about the Cell viability ([8]; 10 μM zeaxanthin) of the same molecule?
Answer: 83 ± 4.2%

Question: And the Cell viability ([8]; 30 μM zeaxanthin)?
Answer: 57 ± 3.5%

Question: What about the Cell viability ([8]; 100 μM zeaxanthin) of the same molecule?
Answer: 31 ± 1.4%

Question: What about the Cell viability ([9]; Hep G2, 10 μM zeaxanthin) of the same molecule?
Answer: 79 ± 3.7%

Question: What about the Cell viability ([9]; Hep G2, 30 μM zeaxanthin) of the same molecule?
Answer: 58 ± 1.8%

Question: What about the Cell viability ([9]; Hep G2, 100 μM zeaxanthin) of the same molecule?
Answer: 32 ± 1.2%

Question: And the “annexin V staining of the cell membrane (apoptotic cells)” value ([10]; SP6.5, 100 μM zeaxanthin, 24 hr, FIG. 3)?
Answer: numerous cells showed staining of the cell membrane with annexin V

Question: What about the “extent of apoptosis (annexin V-FITC staining)” value ([10]; SP6.5, 10, 30 and 100 μM zeaxanthin, 24 hours) of the same molecule?
Answer: apoptosis in uveal melanoma cells induced by zeaxanthin in a dose-dependent manner

Question: What about the Cell viability ([11]; A375, 10 μM zeaxanthin) of the same molecule?
Answer: 62 ± 2.7%

Question: What about the Cell viability ([11]; A375, 30 μM zeaxanthin) of the same molecule?
Answer: 41 ± 2.7%

Question: What about the Cell viability ([11]; A375, 100 μM zeaxanthin) of the same molecule?
Answer: 6%

Question: What about the Cell viability ([12]; SCC1, 10 μM zeaxanthin) of the same molecule?
Answer: 80 ± 3.5%

Question: And the Cell viability ([12]; SCC1, 30 μM zeaxanthin)?
Answer: 65 ± 2.9%

Question: What about the Cell viability ([12]; SCC1, 100 μM zeaxanthin) of the same molecule?
Answer: 13 ± 1.4%

Question: What about the Cell viability ([13]; M17, 10 μM zeaxanthin) of the same molecule?
Answer: 84 ± 3.9%

Question: And the Cell viability ([13]; M17, 30 μM zeaxanthin)?
Answer: 69 ± 2.5%

Question: And the Cell viability ([13]; M17, 100 μM zeaxanthin)?
Answer: 41 ± 1.0%
